For twelve molecules, T/C results are on record in PubChem BioAssay AID248 (DTP/NCI, 2004).

Inconclusive results and toxic doses are left out.

This assay relates to L1210 leukemia ip in BDF1 mice, survival T/C. The assay is described as follows: NCI In Vivo Anticancer Drug Screen. Data for tumor model L1210 Leukemia (intraperitoneal) in B6D2F1 (BDF1) mice. As to conditions: endpoint: mean survival time, higher = longer survival. The method, boiled down:
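Antitumor effect is assessed in tumor-bearing animals. Survival in the compound arm is compared with a vehicle-dosed control arm and expressed as their quotient.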

[1] abbreviates: dose: 100.0 mg/kg/injection, schedule: Q01DX009 (ip), vehicle: Klucel (hydroxypropylcellulose) (HPC).
[2] abbreviates: dose: 200.0 mg/kg/injection, schedule: Q01DX009 (ip), vehicle: Klucel (hydroxypropylcellulose) (HPC).
Where [3] appears, read: dose: 100.0 mg/kg/injection, schedule: Q04DX003 (ip), vehicle: Klucel (hydroxypropylcellulose) (HPC).
Where [4] appears, read: dose: 200.0 mg/kg/injection, schedule: Q04DX003 (ip), vehicle: Klucel (hydroxypropylcellulose) (HPC).
Setting [5] is: dose: 400.0 mg/kg/injection, schedule: Q04DX003 (ip), vehicle: Klucel (hydroxypropylcellulose) (HPC).
Setting [6] is: dose: 100.0 mg/kg/injection, schedule: Q01DX009 (ip), vehicle: acetone.
Where [7] appears, read: dose: 100.0 mg/kg/injection, schedule: Q04DX002 (ip), vehicle: Klucel (hydroxypropylcellulose) (HPC).
Where [8] appears, read: dose: 200.0 mg/kg/injection, schedule: Q04DX002 (ip), vehicle: Klucel (hydroxypropylcellulose) (HPC).
Setting [9] is: dose: 100.0 mg/kg/injection, schedule: Q01DX001 (ip), vehicle: saline.
[10] abbreviates: dose: 200.0 mg/kg/injection, schedule: Q01DX001 (ip), vehicle: saline.

On to `O=C(N/C=C/NC(=O)NCc1ccco1)NCc1ccco1`, for which the T/C was 97 % of control under setting [1] and 87 % of control under setting [2].

Regarding `COc1ccc(OCC(=O)c2ccccc2)cc1`, the T/C by setting is: under setting [3], 102 % of control; under setting [4], 98 % of control; under setting [5], 98 % of control.

As for `N[C@H](Cc1c[nH]c2ccccc12)C(=O)O`, the T/C under setting [6] is 95 % of control; the T/C (dose: 200.0 mg/kg/injection, schedule: Q01DX009 (ip), vehicle: acetone) was 104 % of control; the T/C (dose: 400.0 mg/kg/injection, schedule: Q01DX009 (ip), vehicle: acetone) was 102 % of control; the T/C (dose: 800.0 mg/kg/injection, schedule: Q01DX009 (ip), vehicle: acetone) is 95 % of control.

Take `COC1OC(CCl)C(OS(=O)(=O)c2ccc(C)cc2)C(OS(=O)(=O)c2ccc(C)cc2)C1OS(=O)(=O)c1ccc(C)cc1` (configuration not stated): the T/C under setting [7] was 90 % of control; the T/C under setting [8] is 93 % of control; the T/C (dose: 400.0 mg/kg/injection, schedule: Q04DX002 (ip), vehicle: Klucel (hydroxypropylcellulose) (HPC)) is 97 % of control.

Consider `O=[N+]([O-])c1ccc(/C=C/c2ccccc2Cl)cc1`, for which the T/C was 97 % of control under setting [1]; 109 % of control under setting [3]; 97 % of control under setting [2]; 104 % of control under setting [4]; 101 % of control (dose: 400.0 mg/kg/injection, schedule: Q01DX009 (ip), vehicle: Klucel (hydroxypropylcellulose) (HPC)); 107 % of control under setting [5].

With `CN(N=O)C(=O)NCCCl`, the T/C was 104 % of control (dose: 0.36 mg/kg/injection, schedule: Q01DX Z (ip), vehicle: carboxymethylcellulose (CMC)); 95 % of control (dose: 0.78 mg/kg/injection, schedule: Q01DX Z (ip), vehicle: carboxymethylcellulose (CMC)); 98 % of control (dose: 1.56 mg/kg/injection, schedule: Q01DX Z (ip), vehicle: carboxymethylcellulose (CMC)); 102 % of control (dose: 3.12 mg/kg/injection, schedule: Q01DX Z (ip), vehicle: carboxymethylcellulose (CMC)); 102 % of control (dose: 6.25 mg/kg/injection, schedule: Q01DX Z (ip), vehicle: carboxymethylcellulose (CMC)); 103 % of control (dose: 12.5 mg/kg/injection, schedule: Q01DX001 (ip), vehicle: Klucel (hydroxypropylcellulose) (HPC)). Also, the T/C by setting is: (dose: 12.5 mg/kg/injection, schedule: Q01DX Z (ip), vehicle: carboxymethylcellulose (CMC)) 101 % of control; (dose: 25.0 mg/kg/injection, schedule: Q01DX001 (ip), vehicle: Klucel (hydroxypropylcellulose) (HPC)) 103 % of control; (dose: 25.0 mg/kg/injection, schedule: Q01DX Z (ip), vehicle: carboxymethylcellulose (CMC)) 104 % of control; (dose: 75.0 mg/kg/injection, schedule: Q01DX Z (ip), vehicle: carboxymethylcellulose (CMC)) 119 % of control; (dose: 200.0 mg/kg/injection, schedule: Q01DX001 (ip), vehicle: Klucel (hydroxypropylcellulose) (HPC)) 118 % of control.

As to `CCCN(CCC)CC(=O)N1CC(=O)Nc2ccccc21`, the T/C (dose: 25.0 mg/kg/injection, schedule: Q01DX009 (ip), vehicle: acetone) is 98 % of control; the T/C (dose: 50.0 mg/kg/injection, schedule: Q01DX009 (ip), vehicle: acetone) was 96 % of control; the T/C under setting [6] is 95 % of control; the T/C (dose: 100.0 mg/kg/injection, schedule: Q04DX003 (ip), vehicle: acetone) was 103 % of control; the T/C (dose: 200.0 mg/kg/injection, schedule: Q04DX003 (ip), vehicle: acetone) was 103 % of control.

In the case of `CN(C)c1ccc(/C=C/c2ccc3ccccc3[n+]2C)cc1`, the T/C is, setting by setting: (dose: 1.5 mg/kg/injection, schedule: Q01DX009 (ip), vehicle: Klucel (hydroxypropylcellulose) (HPC)) 103 % of control; (dose: 3.0 mg/kg/injection, schedule: Q01DX009 (ip), vehicle: Klucel (hydroxypropylcellulose) (HPC)) 97 % of control; (dose: 3.12 mg/kg/injection, schedule: Q01DX009 (ip), vehicle: Klucel (hydroxypropylcellulose) (HPC)) 100 % of control; (dose: 6.0 mg/kg/injection, schedule: Q04DX003 (ip), vehicle: Klucel (hydroxypropylcellulose) (HPC)) 107 % of control; (dose: 6.25 mg/kg/injection, schedule: Q01DX009 (ip), vehicle: Klucel (hydroxypropylcellulose) (HPC)) 104 % of control; (dose: 12.0 mg/kg/injection, schedule: Q04DX003 (ip), vehicle: Klucel (hydroxypropylcellulose) (HPC)) 107 % of control. In addition, the T/C by setting is: (dose: 12.5 mg/kg/injection, schedule: Q01DX009 (ip), vehicle: Klucel (hydroxypropylcellulose) (HPC)) 107 % of control; (dose: 25.0 mg/kg/injection, schedule: Q01DX009 (ip), vehicle: Klucel (hydroxypropylcellulose) (HPC)) 96 % of control; (dose: 25.0 mg/kg/injection, schedule: Q04DX003 (ip), vehicle: Klucel (hydroxypropylcellulose) (HPC)) 86 % of control; under setting [9], 112 % of control; under setting [10], 121 % of control.

`Cc1cc(Br)c2c(C)ccc(C)c2n1`: the T/C reads like this: (dose: 2.0 mg/kg/injection, schedule: Q01DX001 (ip), vehicle: saline) 98 % of control; (dose: 5.0 mg/kg/injection, schedule: Q01DX001 (ip), vehicle: saline) 102 % of control; (dose: 10.0 mg/kg/injection, schedule: Q01DX001 (ip), vehicle: saline) 96 % of control.

As to `O=C(NCCCNC(=O)Nc1ccc(C2=NCCN2)cc1)Nc1ccc(C2=NCCN2)cc1`, the T/C reads like this: (dose: 0.5 mg/kg/injection, schedule: Q01DX Z (ip), vehicle: carboxymethylcellulose (CMC)) 105 % of control; (dose: 1.0 mg/kg/injection, schedule: Q01DX Z (ip), vehicle: carboxymethylcellulose (CMC)) 105 % of control; (dose: 8.0 mg/kg/injection, schedule: Q01DX Z (ip), vehicle: water) 122 % of control; (dose: 12.0 mg/kg/injection, schedule: Q01DX Z (ip), vehicle: carboxymethylcellulose (CMC)) 225 % of control; (dose: 16.0 mg/kg/injection, schedule: Q01DX Z (ip), vehicle: carboxymethylcellulose (CMC)) 223 % of control; (dose: 16.0 mg/kg/injection, schedule: Q01DX Z (ip), vehicle: water) 210 % of control. Moreover, the T/C runs as follows: (dose: 24.0 mg/kg/injection, schedule: Q01DX Z (ip), vehicle: carboxymethylcellulose (CMC)) 223 % of control; (dose: 31.0 mg/kg/injection, schedule: Q01DX Z (ip), vehicle: carboxymethylcellulose (CMC)) 177 % of control.

Regarding `CN(C)N=Nc1ccc(Cl)cc1`, the T/C is, setting by setting: (dose: 37.5 mg/kg/injection, schedule: Q04DX003 (ip), vehicle: saline with Tween-80) 96 % of control; (dose: 50.0 mg/kg/injection, schedule: Q01DX001 (ip), vehicle: saline with Tween-80) 106 % of control; (dose: 50.0 mg/kg/injection, schedule: Q01DX009 (ip), vehicle: saline with Tween-80) 86 % of control; (dose: 75.0 mg/kg/injection, schedule: Q04DX003 (ip), vehicle: saline with Tween-80) 97 % of control; (dose: 100.0 mg/kg/injection, schedule: Q01DX001 (ip), vehicle: saline with Tween-80) 104 % of control; under setting [9], 103 % of control. For the same molecule, the T/C was 87 % of control (dose: 100.0 mg/kg/injection, schedule: Q01DX009 (ip), vehicle: saline with Tween-80); 104 % of control (dose: 150.0 mg/kg/injection, schedule: Q04DX003 (ip), vehicle: saline with Tween-80); 113 % of control (dose: 200.0 mg/kg/injection, schedule: Q01DX001 (ip), vehicle: saline with Tween-80); 107 % of control under setting [10]; 90 % of control (dose: 200.0 mg/kg/injection, schedule: Q01DX009 (ip), vehicle: saline with Tween-80); 108 % of control (dose: 300.0 mg/kg/injection, schedule: Q04DX003 (ip), vehicle: saline with Tween-80). Besides, the T/C is, setting by setting: (dose: 400.0 mg/kg/injection, schedule: Q01DX001 (ip), vehicle: saline) 97 % of control; (dose: 400.0 mg/kg/injection, schedule: Q01DX009 (ip), vehicle: saline with Tween-80) 91 % of control.

As for `O=C(O)COc1ccc(Cl)c2ccccc12`, the T/C by setting is: under setting [7], 96 % of control; under setting [8], 100 % of control.
